Drawing on patent publication US20160145247A1, “Aminomethyl-Biaryl Derivatives Complement Factor D inhibitors and uses thereof” (NOVARTIS AG, priority 2013, published 2016), this text covers IC50 for 33 compounds.

SMILES strings stand for the structures.

T1 sequence (P00746 26-253): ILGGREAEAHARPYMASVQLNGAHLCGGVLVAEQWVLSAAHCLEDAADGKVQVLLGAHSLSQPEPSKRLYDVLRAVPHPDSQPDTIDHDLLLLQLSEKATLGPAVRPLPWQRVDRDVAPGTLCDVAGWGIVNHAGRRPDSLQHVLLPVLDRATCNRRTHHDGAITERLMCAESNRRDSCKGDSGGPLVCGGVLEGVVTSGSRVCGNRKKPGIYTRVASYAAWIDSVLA

The assay addresses T1, factor D (Homo sapiens, UniProt P00746).
T1 construct: made in house; host or cells: E. coli
The assay is described as follows: factor D inhibition assay of Biological Example 2. Format: biochemical.
One may read the IC50 as the concentration needed to halve the response being measured. For `Cc1c(CN)cccc1-c1cccc(COc2ccccc2CC(=O)O)c1` [Example 143-C, 2-(2-((3′-(Aminomethyl)-2′-methyl-[1,1′-biphenyl]-3-yl)methoxy)phenyl)acetic acid], half-maximal inhibition (IC50) was put at 132 nM.
As to `CNc1sc(-c2cc(F)cc(CN)c2)nc1C(=O)Nc1ccccc1CC(=O)O` [Example 31-B, 2-(2-(2-(3-(aminomethyl)-5-fluorophenyl)-5-(methylamino)thiazole-4-carboxamido)phenyl)acetic acid], the half-inhibitory concentration (IC50) was determined as 16 nM. This IC50 is about 8.2-fold lower than that of the compound before.
To `C[C@@H](N)c1cccc(-c2cc(COc3ccccc3CC(=O)O)cc(N(C)C[C@H]3CCCO3)c2)c1F` [Example 216-I] belongs 13 nM.
`NCc1cc(F)cc(-c2cccc(C(=O)Nc3c(Br)cccc3CC(=O)O)n2)c1` [Example 21-E] registered a half-inhibitory concentration (IC50) of 86 nM.
To `NCc1cc(F)cc(-c2cc(O)cc(C(=O)Nc3ccccc3CC(=O)O)c2)c1` [Example 60, 2-(2-(3′-(Aminomethyl)-5′-fluoro-5-hydroxy-[1,1′-biphenyl]-3-ylcarboxamido)phenyl)acetic acid] belongs 47 nM; to `CC(C)(N)c1cccc(-c2cccc(COc3ccccc3CC(=O)O)c2)c1F` [Example 190-L], 3270 nM; to `C[C@@H](N)c1cccc(-c2cc(COc3ccccc3CC(=O)O)cc(OCC3(C)COC3)c2)c1` [Example 263, (R)-2-(2-((3′-(1-aminoethyl)-5-((3-methyloxetan-3-yl)methoxy)-[1,1′-biphenyl]-3-yl)methoxy)phenyl)acetic acid], 14 nM.
On to `O=C(O)Cc1ccccc1OCc1cccc(-c2cccc(-c3ncc[nH]3)c2)c1` [Example 138-F], for which the IC50 was found to be 2190 nM.
To `NC(CCO)c1cccc(-c2cccc(C(=O)Nc3ccccc3CC(=O)O)c2)c1` (racemic) [Example 87, (±)-2-(2-(3′-(1-amino-3-hydroxypropyl)-[1,1′-biphenyl]-3-ylcarboxamido)phenyl)acetic acid] belongs 814 nM; to `C[C@@H](N)c1cccc(-c2cc(COc3ccccc3CC(=O)O)cc(C(=O)N(C)C)c2)c1F` [Example 216-R], 147 nM.
`NCc1cccc(-c2cc(COc3ccccc3CC(=O)O)c3cn[nH]c3c2)c1` [Example 179, 2-(2-((6-(3-(Aminomethyl)phenyl)-1H-indazol-4-yl)methoxy)phenyl)acetic acid] yielded an IC50 of 4 nM.
Then `NCc1cccc(-c2ccnc(C(=O)Nc3ccccc3CC(=O)O)c2)c1` [Example 39, 2-(2-(4-(3-(Aminomethyl)phenyl)picolinamido)phenyl)acetic acid], with 40500 nM.
`C[C@H](O)[C@@H](N)c1cccc(-c2cccc(COc3ccccc3CC(=O)O)c2)c1` [Example 190-D] displayed an IC50 of 981 nM.
Regarding `N[C@H](CO)c1cccc(-c2cc(OC[C@@H]3CCCO3)cc(C(=O)Nc3ccccc3CC(=O)O)c2)c1` [Example 81, 2-(2-(3′-((S)-1-Amino-2-hydroxyethyl)-5-(((S)-tetrahydrofuran-2-yl)methoxy)-[1,1′-biphenyl]-3-ylcarboxamido)phenyl)acetic acid], the concentration for half-maximal inhibition (IC50) worked out at 20 nM.
Take `C[C@@H](N)c1cccc(-c2cc(COc3ccccc3CC(=O)O)cc(NC3CCCC3)c2)c1F` [Example 216-U]: the IC50 was 5 nM.
To `C[C@@H](N)c1cccc(-c2cc(COc3ccccc3CC(=O)O)cc(NCC3CCCO3)c2F)c1F` (stereo partly drawn) [Example 222, 2-(2-((3′-((R)-1-aminoethyl)-2′,6-difluoro-5-(((tetrahydrofuran-2-yl)methyl)amino)-[1,1′-biphenyl]-3-yl)methoxy)phenyl)acetic acid] belongs 16 nM; to `C[C@@H](N)c1cccc(-c2cc(COc3ccccc3CC(=O)O)cc(OCC3CC3)c2)c1F` [Example 148, (R)-2-(2-((3′-(1-Aminoethyl)-5-(cyclopropylmethoxy)-2′-fluoro-[1,1′-biphenyl]-3-yl)methoxy)phenyl)acetic acid], 9 nM; to `C[C@@H](N)c1cccc(-c2cc(COc3ccccc3CC(=O)O)cc(OCc3ccncc3)c2)c1F` [Example 214-F], 3 nM.
Then `C[C@@H](N)c1cccc(-c2cc(Br)cc(COc3ccccc3CC(=O)O)c2)c1F` [Example 120-U], with 12 nM; and `NCc1cccc(-c2cc(OCc3ccncc3)cc(C(=O)Nc3ccccc3CC(=O)O)c2)c1` [Example 62, 2-(2-(3′-(Aminomethyl)-5-(pyridin-4-ylmethoxy)-[1,1′-biphenyl]-3-ylcarboxamido)phenyl)acetic acid], with 54 nM; and `COc1ccc(CC(=O)O)c(NC(=O)c2cccc(-c3cc(F)cc(CN)c3)n2)c1` [Example 21-Q], with 22 nM.
On to `NCc1cc(-c2cccc(COc3ccccc3CC(=O)O)c2)ccc1F` [Example 138-D], for which the midpoint of inhibition, the IC50, lay at 223 nM. This IC50 lies about 10-fold higher than the previous one.
Then `NC(=O)C(N)c1cccc(-c2cccc(COc3ccccc3CC(=O)O)c2)c1` (racemic) [Example 189, (±)-2-(2-((3′-(1,2-Diamino-2-oxoethyl)-[1,1′-biphenyl]-3-yl)methoxy)phenyl)acetic acid], with 1110 nM; and `NCc1cccc(-c2cc(COc3ccccc3CC(=O)O)cc(OC[C@H]3CCCO3)c2)c1F` [Example 234-B, (R)-2-(2-((3′-(aminomethyl)-2′-fluoro-5-((tetrahydrofuran-2-yl)methoxy)-[1,1′-biphenyl]-3-yl)methoxy)phenyl)acetic acid], with 4 nM.
To `Cn1ccc(COc2cc(C(=O)Nc3ccccc3CC(=O)O)cc(-c3cc(F)cc(CN)c3)c2)n1` [Example 69, 2-(2-(3′-(Aminomethyl)-5′-fluoro-5-((1-methyl-1H-pyrazol-3-yl)methoxy)-[1,1′-biphenyl]-3-ylcarboxamido)phenyl)acetic acid] belongs 26 nM; to `CC(C(=O)O)c1ccccc1NC(=O)c1cccc(-c2cc(F)cc(CN)c2)c1` (racemic) [Example 19-B, (±)-2-(2-(3′-(Aminomethyl)-5′-fluoro-[1,1′-biphenyl]-3-ylcarboxamido)phenyl)propanoic acid], 666 nM.
To `NCc1cccc(-c2cccc(OCc3ccccc3CC(=O)O)n2)c1` [Example 99-C, 2-(2-(((6-(3-(Aminomethyl)phenyl)pyridin-2-yl)oxy)methyl)phenyl)acetic acid] belongs 1850 nM.
Turning to `NCc1cccc(-c2cncc(C(=O)Nc3ccccc3CC(=O)O)c2)c1` [Example 40, 2-(2-(5-(3-(Aminomethyl)phenyl)nicotinamido)phenyl)acetic acid], inhibition was half-maximal at 12800 nM (IC50).
Then `C[C@@H](N)c1cccc(-c2cc(CCC3CCOCC3)cc(COc3ccccc3CC(=O)O)c2)c1F` [Example 248, (R)-2-(2-((3′-(1-aminoethyl)-2′-fluoro-5-(2-(tetrahydro-2H-pyran-4-yl)ethyl)-[1,1′-biphenyl]-3-yl)methoxy)phenyl)acetic acid], with 140 nM.
Then `C[C@@H](N)c1cccc(-c2cc(COc3ccccc3CC(=O)O)cc(NCCF)c2)c1F` [Example 216-K], with 2 nM.
Then `C[C@@H](N)c1cccc(-c2cccc(COc3ccccc3CC(=O)O)c2)c1F` [Example 138-L], with 99 nM; and `C[C@@H](N)c1cccc(-c2cc(COc3ccccc3CC(=O)O)cc(COC3CCOc4ccc(Cl)cc43)c2)c1F` (stereo partly drawn) [Example 120-S], with 21 nM.
`CCC[C@@H](N)c1cccc(-c2cccc(COc3ccccc3CC(=O)O)c2)n1` [Example 196-A] came in with a half-inhibitory concentration (IC50) of 11300 nM.
